Data on 1 compound can be found in article PMC5218480 (PLoS ONE, 2017).

This assay deals with MV-4-11 cells. The assay can be described thus: Gene expression microarray analysis (Affymetrix PrimeView) and GSEA. The class given is cell-based, human. Details: RFU PODN (11730768_x_at) / Fold change /veh PODN (11730768_x_at) / RFU LINC00158 (11744669_a_at) / Fold change /veh LINC00158 (11744669_a_at) / RFU DUSP10 (11751237_a_at) / Fold change /veh DUSP10 (11751237_a_at) / RFU ID3 (11757404_x_at) / Fold change /veh ID3 (11757404_x_at) / RFU PLEKHG5 (11737974_s_at) / Fold change /veh PLEKHG5 (11737974_s_at) / RFU LRRC4B (11730491_at) / Fold change /veh LRRC4B (11730491_at) / RFU GIMAP4 (11747438_a_at) / Fold change /veh GIMAP4 (11747438_a_at) / RFU KRT8 (11758183_x_at) / Fold change /veh KRT8 (11758183_x_at) / RFU CNN1 (11734310_a_at) / Fold change /veh CNN1 (11734310_a_at) / RFU VPS37D (11726825_at) / Fold change /veh VPS37D (11726825_at) / RFU C10orf10 (11716522_x_at) / Fold change /veh C10orf10 (11716522_x_at) / RFU KIR2DL2 /// KIR2DL4 /// KIR2DL5A /// KIR2DL5B /// KIR2DS1 /// KIR2DS2 /// KIR2DS3 /// KIR2DS4 /// KIR3DL3 /// KIR3DL3 /// KIR3DS1 (11738374_at) / Fold change /veh KIR2DL2 /// KIR2DL4 /// KIR2DL5A /// KIR2DL5B /// KIR2DS1 /// KIR2DS2 /// KIR2DS3 /// KIR2DS4 /// KIR3DL3 /// KIR3DL3 /// KIR3DS1 (11738374_at) / RFU C1QL1 (11718748_at) / Fold change /veh C1QL1 (11718748_at) / RFU TMPRSS4 (11747572_a_at) / Fold change /veh TMPRSS4 (11747572_a_at) / RFU HAMP (11756126_x_at) / Fold change /veh HAMP (11756126_x_at) / RFU RNFT2 (11725882_a_at) / Fold change /veh RNFT2 (11725882_a_at) / RFU NR4A2 (11747474_a_at) / Fold change /veh NR4A2 (11747474_a_at) / RFU ABCC12 (11746883_a_at) / Fold change /veh ABCC12 (11746883_a_at) / RFU TMEM136 (11760407_x_at) / Fold change /veh TMEM136 (11760407_x_at) / RFU CLDN22 /// WWC2 (11732394_at) / Fold change /veh CLDN22 /// WWC2 (11732394_at) / RFU HLA-DPB1 (11760878_x_at) / Fold change /veh HLA-DPB1 (11760878_x_at) / RFU SPINT1 (11716480_a_at) / Fold change /veh SPINT1 (11716480_a_at) / RFU GAP43 (11754022_s_at) / Fold change /veh GAP43 (11754022_s_at) / RFU A4GNT (11735810_at) / Fold change /veh A4GNT (11735810_at) / RFU PRB3 (11715151_x_at) / Fold change /veh PRB3 (11715151_x_at) / RFU TUBB4B (11761932_at) / Fold change /veh TUBB4B (11761932_at) / RFU CAPN14 (11732068_a_at) / Fold change /veh CAPN14 (11732068_a_at) / RFU TMCC2 (11721928_a_at) / Fold change /veh TMCC2 (11721928_a_at) / RFU IRGQ (11745062_a_at) / Fold change /veh IRGQ (11745062_a_at) / RFU FAM174B (11720279_a_at) / Fold change /veh FAM174B (11720279_a_at) / RFU TMPRSS4 (11748680_a_at) / Fold change /veh TMPRSS4 (11748680_a_at) / RFU FAM212B (11763350_a_at) / Fold change /veh FAM212B (11763350_a_at) / RFU PLEKHG5 (11743358_a_at) / Fold change /veh PLEKHG5 (11743358_a_at) / RFU ZSCAN30 (11745921_a_at) / Fold change /veh ZSCAN30 (11745921_a_at) / RFU CMKLR1 (11741424_a_at) / Fold change /veh CMKLR1 (11741424_a_at) / RFU LOC101060620 /// MAPK8IP1 (11723275_at) / Fold change /veh LOC101060620 /// MAPK8IP1 (11723275_at) / RFU SPTSSB (11747773_x_at) / Fold change /veh SPTSSB (11747773_x_at) / RFU PRSS12 (11739890_at) / Fold change /veh PRSS12 (11739890_at) / RFU BIN1 (11741810_x_at) / Fold change /veh BIN1 (11741810_x_at) / RFU WNT11 (11732464_a_at) / Fold change /veh WNT11 (11732464_a_at) / RFU C10orf10 (11716521_a_at) / Fold change /veh C10orf10 (11716521_a_at) / RFU C5orf56 (11738089_at) / Fold change /veh C5orf56 (11738089_at) / RFU CYB561 (11721691_x_at) / Fold change /veh CYB561 (11721691_x_at) / RFU ANKRD19P (11752326_a_at) / Fold change /veh ANKRD19P (11752326_a_at) / RFU OR2T12 /// OR2T33 /// OR2T8 (11738714_s_at) / Fold change /veh OR2T12 /// OR2T33 /// OR2T8 (11738714_s_at) / RFU VCAN (11748164_a_at) / Fold change /veh VCAN (11748164_a_at) / RFU JSRP1 (11732532_at) / Fold change /veh JSRP1 (11732532_at) / RFU KRTAP10-11 (11738290_x_at) / Fold change /veh KRTAP10-11 (11738290_x_at) / RFU MYO3A (11730013_a_at) / Fold change /veh MYO3A (11730013_a_at) / RFU EBF3 (11725865_a_at) / Fold change /veh EBF3 (11725865_a_at) / RFU CAMK2N1 (11719241_x_at) / Fold change /veh CAMK2N1 (11719241_x_at) / RFU C5orf56 (11738088_a_at) / Fold change /veh C5orf56 (11738088_a_at) / RFU OLFML3 (11715873_a_at) / Fold change /veh OLFML3 (11715873_a_at) / RFU LOC100653217 /// NTM (11731650_a_at) / Fold change /veh LOC100653217 /// NTM (11731650_a_at) / RFU MAPK11 (11762145_a_at) / Fold change /veh MAPK11 (11762145_a_at) / RFU FIZ1 (11724087_x_at) / Fold change /veh FIZ1 (11724087_x_at) / RFU OASL (11726364_x_at) / Fold change /veh OASL (11726364_x_at) / RFU SOX15 (11748057_x_at) / Fold change /veh SOX15 (11748057_x_at) / RFU CD79A (11719716_a_at) / Fold change /veh CD79A (11719716_a_at) / RFU HIST1H1D (11736915_at) / Fold change /veh HIST1H1D (11736915_at) / RFU CASKIN2 (11723855_a_at) / Fold change /veh CASKIN2 (11723855_a_at) / RFU LOC730098 (11760151_x_at) / Fold change /veh LOC730098 (11760151_x_at) / RFU OR4N2 (11742367_at) / Fold change /veh OR4N2 (11742367_at) / RFU PRRT2 (11749266_a_at) / Fold change /veh PRRT2 (11749266_a_at) / RFU SNX32 (11753110_a_at) / Fold change /veh SNX32 (11753110_a_at) / RFU CDHR5 (11726645_a_at) / Fold change /veh CDHR5 (11726645_a_at) / RFU RCAN1 (11760418_a_at) / Fold change /veh RCAN1 (11760418_a_at) / RFU FAM167A (11723789_a_at) / Fold change /veh FAM167A (11723789_a_at) / RFU FAM26E (11764081_at) / Fold change /veh FAM26E (11764081_at) / RFU ISYNA1 (11749810_s_at) / Fold change /veh ISYNA1 (11749810_s_at) / RFU ACY1 (11761880_at) / Fold change /veh ACY1 (11761880_at) / RFU 11764098_at / Fold change /veh 11764098_at / RFU SAMD14 (11745864_x_at) / Fold change /veh SAMD14 (11745864_x_at) / RFU NPB (11741838_a_at) / Fold change /veh NPB (11741838_a_at) / RFU TMPRSS6 (11731388_a_at) / Fold change /veh TMPRSS6 (11731388_a_at) / RFU KRTAP10-2 (11738614_at) / Fold change /veh KRTAP10-2 (11738614_at) / RFU ARHGAP8 /// PRR5-ARHGAP8 (11727945_x_at) / Fold change /veh ARHGAP8 /// PRR5-ARHGAP8 (11727945_x_at) / RFU KRTAP5-7 /// NADSYN1 (11734609_at) / Fold change /veh KRTAP5-7 /// NADSYN1 (11734609_at) / RFU RASL12 (11751679_a_at) / Fold change /veh RASL12 (11751679_a_at) / RFU CDKN2B (11736163_a_at) / Fold change /veh CDKN2B (11736163_a_at) / RFU PRF1 (11729649_at) / Fold change /veh PRF1 (11729649_at) / RFU, ZNF638 /// ZNF638-IT1 / Fold change vs veh, ZNF638 /// ZNF638-IT1 / RFU, PANK3 / Fold change vs veh, PANK3 / RFU, SH3YL1 / Fold change vs veh, SH3YL1 / RFU, ZEB2 / Fold change vs veh, ZEB2 / RFU, NRIP1 / Fold change vs veh, NRIP1 / RFU, PTTG1IP / Fold change vs veh, PTTG1IP / RFU, CAPN2 / Fold change vs veh, CAPN2 / RFU, MED14 / Fold change vs veh, MED14 / RFU, SNORA58 / Fold change vs veh, SNORA58 / RFU, C1orf63 / Fold change vs veh, C1orf63 / RFU, LRRFIP1 / Fold change vs veh, LRRFIP1 / RFU, NDUFAF7 / Fold change vs veh, NDUFAF7 / RFU, SLC12A2 / Fold change vs veh, SLC12A2 / RFU, IBTK / Fold change vs veh, IBTK / RFU, ESF1 / Fold change vs veh, ESF1 / Fold change vs veh, TMEM50B / RFU, TAOK1 / Fold change vs veh, TAOK1 / RFU, ACBD3 / Fold change vs veh, ACBD3 / RFU, TMA16 / Fold change vs veh, TMA16 / RFU, RWDD3 / Fold change vs veh, RWDD3 / RFU, BCAT1 / Fold change vs veh, BCAT1 / RFU, EDEM3 / Fold change vs veh, EDEM3 / RFU, TMEM33 / Fold change vs veh, TMEM33 / RFU, WDR75 / Fold change vs veh, WDR75 / RFU, AHCTF1 / Fold change vs veh, AHCTF1 / RFU, TFRC / Fold change vs veh, TFRC / RFU, ZDHHC17 / Fold change vs veh, ZDHHC17 / RFU, NOM1 / Fold change vs veh, NOM1 / RFU, ARL8B / Fold change vs veh, ARL8B / RFU, ZBTB11 / Fold change vs veh, ZBTB11 / RFU, TAMM41 / Fold change vs veh, TAMM41 / RFU, KIAA1704 /// LOC100996395 / Fold change vs veh, KIAA1704 /// LOC100996395 / RFU, ING1 / Fold change vs veh, ING1 / RFU, TRMT61B / Fold change vs veh, TRMT61B / RFU, FUBP3 / Fold change vs veh, FUBP3 / RFU, TP53 / Fold change vs veh, TP53 / RFU, TNKS2 / Fold change vs veh, TNKS2 / RFU, ZFP14 / Fold change vs veh, ZFP14 / RFU, ACTR2 / Fold change vs veh, ACTR2 / RFU, PPP3R1 / Fold change vs veh, PPP3R1 / RFU, PIK3R1 / Fold change vs veh, PIK3R1 / RFU, HNRNPA1 / Fold change vs veh, HNRNPA1 / RFU, RNF170 / Fold change vs veh, RNF170 / RFU, ZNF28 / Fold change vs veh, ZNF28 / RFU, RNGTT / Fold change vs veh, RNGTT / RFU, OGT / Fold change vs veh, OGT / RFU, BRD1 / Fold change vs veh, BRD1 / RFU, MARS / Fold change vs veh, MARS / RFU, ZNF655 / Fold change vs veh, ZNF655 / RFU, FAHD1 / Fold change vs veh, FAHD1 / RFU, BDP1 / Fold change vs veh, BDP1 / RFU, LRRCC1 / Fold change vs veh, LRRCC1 / RFU, ARID1A / Fold change vs veh, ARID1A / RFU, ZNF146 / Fold change vs veh, ZNF146 / RFU, ZNF330 / Fold change vs veh, ZNF330 / RFU, GPN3 / Fold change vs veh, GPN3 / RFU, C9orf123 / Fold change vs veh, C9orf123 / RFU, N4BP2L2 / Fold change vs veh, N4BP2L2 / RFU, ARFIP1 / Fold change vs veh, ARFIP1 / RFU, FAM179B / Fold change vs veh, FAM179B / RFU, BCL10 / Fold change vs veh, BCL10 / RFU, UHRF1BP1L / Fold change vs veh, UHRF1BP1L / RFU, BET1 / Fold change vs veh, BET1 / RFU, CNOT2 / Fold change vs veh, CNOT2 / RFU, ZNF268 / Fold change vs veh, ZNF268 / Fold change vs veh, ZNF507 / RFU, DGCR2 / Fold change vs veh, DGCR2 / RFU, WDSUB1 / Fold change vs veh, WDSUB1 / Fold change vs veh, HSP90B1 /// MIR3652 / RFU, ADSS / Fold change vs veh, ADSS / RFU, GK / Fold change vs veh, GK / RFU, ZNF148 / Fold change vs veh, ZNF148 / RFU, TAF9 / Fold change vs veh, TAF9 / RFU, SLC1A5 / Fold change vs veh, SLC1A5 / RFU, SLMO2 / Fold change vs veh, SLMO2 / RFU, ABCC4 / Fold change vs veh, ABCC4 / RFU, LOC101060439 /// RAP1B / Fold change vs veh, LOC101060439 /// RAP1B / RFU, RFX7 / Fold change vs veh, RFX7 / RFU, GTPBP10 / Fold change vs veh, GTPBP10 / RFU, CNEP1R1 / Fold change vs veh, CNEP1R1 / RFU, BIVM-ERCC5 /// ERCC5 / Fold change vs veh, BIVM-ERCC5 /// ERCC5 / RFU, ILF3 / Fold change vs veh, ILF3 / RFU 11762660_at / Fold change /veh 11762660_at / RFU VCAN (11757783_s_at) / Fold change /veh VCAN (11757783_s_at) / RFU DDX43 (11728927_at) / Fold change /veh DDX43 (11728927_at) / RFU KRT8 (11758188_x_at) / Fold change /veh KRT8 (11758188_x_at) / RFU NKD1 (11759106_at) / Fold change /veh NKD1 (11759106_at) / RFU SRD5A1 (11742802_a_at) / Fold change /veh SRD5A1 (11742802_a_at) / RFU TPSAB1 /// TPSB2 (11721975_s_at) / Fold change /veh TPSAB1 /// TPSB2 (11721975_s_at) / RFU GSTM3 (11746129_a_at) / Fold change /veh GSTM3 (11746129_a_at) / RFU IL23R (11737362_x_at) / Fold change /veh IL23R (11737362_x_at) / RFU TMEM51 (11727254_a_at) / Fold change /veh TMEM51 (11727254_a_at) / RFU PIWIL2 (11732686_x_at) / Fold change /veh PIWIL2 (11732686_x_at) / RFU ORM1 (11744905_x_at) / Fold change /veh ORM1 (11744905_x_at) / RFU CCDC152 (11743942_at) / Fold change /veh CCDC152 (11743942_at) / RFU ECM1 (11717891_a_at) / Fold change /veh ECM1 (11717891_a_at) / RFU IL23R (11748794_a_at) / Fold change /veh IL23R (11748794_a_at) / RFU TNFAIP8L3 (11732012_x_at) / Fold change /veh TNFAIP8L3 (11732012_x_at) / RFU MBOAT4 (11741988_at) / Fold change /veh MBOAT4 (11741988_at) / RFU 11764193_at / Fold change /veh 11764193_at / RFU TMEM53 (11763286_at) / Fold change /veh TMEM53 (11763286_at) / RFU MAGEB2 (11727129_at) / Fold change /veh MAGEB2 (11727129_at) / RFU TMEM200A (11744735_a_at) / Fold change /veh TMEM200A (11744735_a_at) / RFU CCDC152 (11751479_a_at) / Fold change /veh CCDC152 (11751479_a_at) / RFU FAM211A (11726209_a_at) / Fold change /veh FAM211A (11726209_a_at) / RFU RGS16 (11746705_a_at) / Fold change /veh RGS16 (11746705_a_at) / RFU VCAN (11755009_s_at) / Fold change /veh VCAN (11755009_s_at) / RFU RHOB (11743442_s_at) / Fold change /veh RHOB (11743442_s_at) / RFU RGS16 (11720943_a_at) / Fold change /veh RGS16 (11720943_a_at) / RFU RGS16 (11720944_at) / Fold change /veh RGS16 (11720944_at) / RFU, VPS4B / Fold change vs veh, VPS4B / RFU, CREB1 / Fold change vs veh, CREB1 / RFU, DNAJC13 / Fold change vs veh, DNAJC13 / RFU, GNAQ / Fold change vs veh, GNAQ / RFU, CDK5R1 / Fold change vs veh, CDK5R1 / RFU, ZRANB3 / Fold change vs veh, ZRANB3 / RFU, CUL4A / Fold change vs veh, CUL4A / RFU, CCNY / Fold change vs veh, CCNY / RFU, UFL1 / Fold change vs veh, UFL1 / RFU, COG3 / Fold change vs veh, COG3 / RFU, DIAPH2 / Fold change vs veh, DIAPH2 / RFU, SKA2 / Fold change vs veh, SKA2 / RFU, AFF3 / Fold change vs veh, AFF3 / RFU, LMF1 / Fold change vs veh, LMF1 / RFU, IPO11 / Fold change vs veh, IPO11 / RFU, DFFB / Fold change vs veh, DFFB / RFU, FOXP1 / Fold change vs veh, FOXP1 / RFU, CARD8 / Fold change vs veh, CARD8 / RFU, STRN3 / Fold change vs veh, STRN3 / RFU, ADK / Fold change vs veh, ADK / RFU, RASSF2 / Fold change vs veh, RASSF2 / RFU, WIPF1 / Fold change vs veh, WIPF1 / RFU, LARP1B / Fold change vs veh, LARP1B / RFU, RASA1 / Fold change vs veh, RASA1 / RFU, RB1 / Fold change vs veh, RB1 / RFU, PPFIA1 / Fold change vs veh, PPFIA1 / RFU, MAT2A / Fold change vs veh, MAT2A / RFU, CCT5 / Fold change vs veh, CCT5 / RFU, WDR92 / Fold change vs veh, WDR92 / RFU, CUX1 / Fold change vs veh, CUX1 / RFU, TTC7A / Fold change vs veh, TTC7A / RFU, TMEM135 / Fold change vs veh, TMEM135 / RFU, DEPTOR / Fold change vs veh, DEPTOR / RFU, CPM / Fold change vs veh, CPM / RFU, DNAJB6 / Fold change vs veh, DNAJB6 / RFU, CACNA2D3 / Fold change vs veh, CACNA2D3 / RFU, DTX4 / Fold change vs veh, DTX4 / RFU, TFCP2 / Fold change vs veh, TFCP2 / RFU, GMCL1 /// GMCL1P1 / Fold change vs veh, GMCL1 /// GMCL1P1 / RFU, AEBP2 / Fold change vs veh, AEBP2 / RFU, SNHG1 /// SNORD22 /// SNORD25 /// SNORD26 /// SNORD27 /// SNORD28 /// SNORD29 /// SNORD31 / Fold change vs veh, SNHG1 /// SNORD22 /// SNORD25 /// SNORD26 /// SNORD27 /// SNORD28 /// SNORD29 /// SNORD31 / Fold change (Aza/veh), C12orf56 (ProbeSet 11735607_a_at) / Fold change (ACY-1035/veh), C12orf56 (ProbeSet 11735607_a_at) / Fold change (Aza/veh), FGFR1OP (ProbeSet 11751329_s_at) / Fold change (ACY-1035/veh), FGFR1OP (ProbeSet 11751329_s_at) / Fold change (Aza/veh), VPS36 (ProbeSet 11739960_a_at) / Fold change (ACY-1035/veh), VPS36 (ProbeSet 11739960_a_at) / RFU SYPL1 (11715823_x_at) / Fold change /veh SYPL1 (11715823_x_at) / RFU IGFBP7 (11715501_s_at) / Fold change /veh IGFBP7 (11715501_s_at) / RFU REEP3 (11722064_at) / Fold change /veh REEP3 (11722064_at) / RFU IGLL1 (11728026_x_at) / Fold change /veh IGLL1 (11728026_x_at): dose or concentration left out as unconfirmed. As to conditions: MV-4-11 cells, 48 hours.

On to `Nc1ccc(-c2cccs2)cc1NC(=O)c1ccc2c(c1)cc(C1CC1)n2CCN1CCOCC1` [ACY-1035], for which the “RFU CCDC152 (11751479_a_at)” value turned out to be 4.13 RFU.
